Results taken from the METLIN SMRT retention time set (Domingo-Almenara et al. 2019).

Test: gradient 5% acetonitrile 3 min, to 50% in 2 min, to 85% in 15 min, held 3 min, 100 µL/min
Conditions: column: Zorbax Extend-C18 2.1 x 50 mm; eluents: water / acetonitrile, 0.1% formic acid
Procedure, shortened: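 Pure standards were analyzed in mixtures of ~100 molecules using HPLC coupled to a quadrupole time-of-flight mass spectrometer, in both positive and negative ionization mode. Separation used a Zorbax Extend-C18 column (2.1 × 50 mm, 1.8 μm) at 100 μL/min, with water and acetonitrile each containing 0.1% formic acid. Dead and dwell volumes were 40 μL and 900 μL, and data were collected over 3 months. Retention time was read from computationally picked adduct peaks, each inspected manually.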

Row | Structure (SMILES) | RP-LC retention time
1 | Cc1nc(-c2noc(-c3ccc(F)cc3)n2)cn1CC(=O)NCc1cccs1 | 814 s
2 | CCN1C(=O)c2cc(S(=O)(=O)Nc3cc(F)cc(F)c3)ccc2Oc2cccnc21 | 1040 s
3 | Cc1ccc(Nc2c(-c3cc(Br)ccc3F)nc3ccc(Cl)cn23)cc1 | 1080 s
4 | CCOc1ccccc1N1CCN(c2cc(C(=O)O)c3cc(NC(=O)C4CCCC4)ccc3n2)CC1 | 638 s
5 | CCS(=O)(=O)N1CC(=O)N(c2ccc(C)c(C)c2)C(C)(C(=O)NC2CCCCCC2)C1 (stereo unspecified) | 979 s
6 | Cc1cccc(-n2c(=O)c3sccc3n(Cc3nc(-c4ccccc4C)no3)c2=O)c1 | 1070 s
7 | CCc1ccc(N2C(=O)CN(Cc3ccccc3Cl)[C@H]3CS(=O)(=O)C[C@H]32)cc1 | 910 s
8 | O=C(Nc1ccc(-c2nnc3n2CCCC3)cc1)C1CCC1 | 622 s
9 | CCOC(=O)c1ccc(NS(=O)(=O)c2cc3n(c2)CCN(CC)C3=O)cc1 | 744 s
10 | COCCCNC(=O)CN1c2ccc(F)cc2-c2ccccc2S1(=O)=O | 756 s
11 | C=CCN1CC(=O)N2Cc3[nH]c4ccccc4c3C[C@H]2C1=O | 708 s
12 | Cc1nn(C)c(C)c1S(=O)(=O)N1[C@H]2CC[C@@H]1c1cnc(-c3ccccc3)nc1C2 | 865 s
13 | CCOCCOC1CCN(C(=O)c2sccc2C)CC1 | 741 s
14 | CCOc1ccc(NC(=O)N2CCCC2c2nc(-c3ccc(OC)cc3)no2)cc1 (stereo unspecified) | 940 s
15 | COc1cccc(CNC(=O)N2CCN(c3cnn4c(C)nnc4c3)CC2)c1 | 658 s

The remaining lines, values ahead:

Row | RP-LC retention time | Structure (SMILES)
16 | 691 s | O=C(CCn1cnc2cc(-c3noc(Cc4cccs4)n3)ccc21)N1CCCC1
17 | 583 s | Cc1cc(CN2CCC(CNC(=O)CSc3ccc(F)cc3)CC2)c(C)o1
18 | 1120 s | Cn1nccc1-c1cccc(-c2noc(-c3ccc(F)cc3F)n2)c1
19 | 787 s | COc1ccc(-n2c(=O)n(C)c(=O)c3cc(C(=O)Nc4ccccc4C(N)=O)cnc32)cc1
20 | 905 s | CC(C)(C)NC(=O)CN1c2ccc(F)cc2-c2ccccc2S1(=O)=O
21 | 1010 s | COc1ccc(Cl)cc1NC(=O)N(C)CCc1noc(COc2ccccc2)n1
22 | 1240 s | COC(=O)c1c(C)c(C(=O)C(C)N(CC2CCCCC2)C(=O)c2ccccc2Cl)c(C)n1C (stereo unspecified)
23 | 637 s | Cc1cc(N(C)C)n2nc(CN3CCC(Cc4ccccc4)CC3)nc2n1
24 | 704 s | O=C(NCCn1nnc2cc(C(=O)N3CCCC3)ccc21)Nc1ccc(Br)cc1
25 | 767 s | CCc1nc(-c2ccc(C(=O)N3CCN(C(=O)c4ccco4)CC3)cc2)cs1
26 | 556 s | CCNC(=O)NCCc1cn(C)c2ncccc12
27 | 966 s | O=c1n(Cc2cc(F)cc(F)c2)nc2c(S(=O)(=O)N3CCc4ccccc4C3)cccn12
28 | 960 s | Cc1cccc(-c2noc(Cn3ccn(Cc4ccc(Cl)cc4)c(=O)c3=O)n2)c1
29 | 686 s | Cc1ccc(NS(=O)(=O)c2cc3n(c2)CCCNC3=O)c(Cl)c1
30 | 734 s | N#CC1(c2ccc(NC(=O)c3cccnc3NCc3ccncc3)cc2)CCCC1
31 | 1090 s | CCc1ccc(-c2nc(C3CC(=O)N(c4ccc(OC)cc4)C3)no2)cc1 (stereo unspecified)
32 | 784 s | O=C(c1cccc(F)c1)N1CCN(S(=O)(=O)c2cc3c4c(c2)CCC(=O)N4CCC3)CC1
33 | 1110 s | Cc1sc(-c2cc(C(F)(F)F)[nH]n2)cc1S(=O)(=O)N1CCCCCC1
34 | 1150 s | CCc1ccc(-c2noc(Cn3c(=O)n(-c4ccc(OC)cc4)c(=O)c4sccc43)n2)cc1
35 | 590 s | Cc1ccc(NC(=O)CCNc2cnc3cnccn23)cc1Cl
36 | 798 s | COc1ccccc1NS(=O)(=O)c1cc2n(c1)CCN(CC(C)C)C2=O
